In patent publication US11466044B2 (WAYNE STATE UNIVERSITY, priority 2017, dated 2022):
pIC50: −log10 of the molar value. In brackets after ≈: the same amount, converted by molar mass. Read-outs that look alike come from different tables or passages of the source.

Experiments:
[1] = system: E coli carrying specific resistance determinants; experiment: MIC by broth microdilution, E coli carrying specific resistance determinants; format: cell-based
[2] = system: Enterobacter cloacae AG290; experiment: MIC by broth microdilution, Enterobacter cloacae; format: cell-based; settings: strain AG290 Enterobacter cloacae
N. gonorrhoeae = experiment: Disk diffusion, N. gonorrhoeae; format: cell-based; settings: 25 nmol
M. smegmatis SZ380 = experiment: MIC by broth microdilution, M. smegmatis
E coli wild type = experiment: MIC by broth microdilution, wild type E coli; format: cell-based
[3] = system: cytosolic ribosome (human chimeric); format: biochemical
Excerpt: (§1) The antiribosomal activity of these compounds was investigated with cell-free translation assays using both wild type bacterial ribosomes and hybrid ribosomes carrying eukaryotic decoding A sites enabling the prediction of selectivity.

[4] = system: mitochondrial ribosome (human chimeric); format: biochemical
Excerpt: as §1

MRSA = experiment: MIC by broth microdilution, MRSA isolates; format: cell-based

`NC[C@@H]1O[C@H](O[C@H]2[C@@H](O)[C@H](O[C@@H]3[C@@H](O)[C@H](N)C[C@H](N)[C@H]3O[C@H]3O[C@H](CN)[C@@H](O)[C@H](O)[C@H]3N)O[C@@H]2CO)[C@H](N)[C@@H](O)[C@@H]1O` [neomycin, Neomycin B, reference compound] was tested, and the “MIC pH421 E. coli APH(3′)-I” value ([1]; engineered strain pH421 APH(3′)-I, Table 2 (Example 4)) was over 128 μg/ml, the “MIC pH422 E. coli APH(3′)-II” value ([1]; engineered strain pH422 APH(3′)-II, Table 2 (Example 4)) was 64 μg/ml and the “MIC pH423 E. coli APH(3′)-VI” value ([1]; engineered strain pH423 APH(3′)-VI, Table 2 (Example 4)) was 32-64 μg/ml. For the same compound, the “MIC E. coli pGB2armA armA” value ([1]; pGB2armA armA, Table 5 (Example 3)) was 0.25-0.5 μg/ml, the “MIC50 E coli pH414 AAC(6′)-I” value ([1]; pH414 AAC(6′)-I, Table 2B (Example 2)) was 2 μg/ml and the “MIC50 E coli pH415 AAC(6′)-II” value ([1]; pH415 AAC(6′)-II, Table 2B (Example 2)) was 4 μg/ml. For the same compound, the “MIC50 E coli pH421 APH(3′)-I” value ([1]; pH421 APH(3′)-I, Table 2B (Example 2)) was over 128 μg/ml, the “MIC50 E coli pH422 APH(3′)-II” value ([1]; pH422 APH(3′)-II, Table 2B (Example 2)) was 64 μg/ml and the “MIC50 E coli pH423 APH(3)-VI” value ([1]; pH423 APH(3)-VI, Table 2B (Example 2)) was 32-64 μg/ml. For the same compound, the “MIC50 E coli pH432 ANT(4′)” value ([1]; pH432 ANT(4′), Table 2B (Example 2)) was 1 μg/ml, the “MIC E. coli pH434 AAC(2′)-Ib” value ([1]; pH434 AAC(2′)-Ib, Table 5 (Example 3)) was over 64 μg/ml and the “MIC AG290 E. cloacae” value [2] was 1 µg/mL (≈ 1.63 µM). For the same compound, the “Disk diffusion 25 nmol N. gonorrhoeae” value (N. gonorrhoeae) was under 8 mm, the “MIC M. smegmatis SZ380 WT” value (M. smegmatis SZ380; SZ380 WT, Table 5 (Example 3)) was 0.5 µg/mL (≈ 0.813 µM) and the “MIC SZ380 M. smegmatis” value (M. smegmatis SZ380; strain SZ380 Mycobacterium smegmatis) was 0.5 µg/mL (≈ 0.813 µM). The “MIC E coli AG006 Wild type” value (E coli wild type; AG006 Wild type, Table 2 (Example 3)) was 0.25 to 0.5 µg/mL, the “MIC E coli AG104 Wild type” value (E coli wild type; AG104 Wild type, Table 2 (Example 3)) was 0.5 to 1 µg/mL and the “MIC50 E coli BM13 (AG06) wt” value (E coli wild type; BM13 (AG06) wt, Table 2A (Example 2)) was 1 µg/mL (≈ 1.63 µM). For the same compound, the “MIC pH430 WT” value (E coli wild type; E. coli strain pH430, WT) was 1 μg/ml, the “MIC WT” value (E coli wild type; Table 3 (Example 1)) was 1 µg/mL (≈ 1.63 µM) and the “MIC WT” value (E coli wild type; Table 3 (Example 2)) was 1 µg/mL (≈ 1.63 µM). For the same compound, the “MIC E. coli WT” value (E coli wild type; Table 4 (Example 3)) was 1 µg/mL (≈ 1.63 µM), the “MIC E. coli WT” value (E coli wild type; Table 5 (Example 3)) was 0.5 to 1 µg/mL and the “MIC AG001 E. coli WT” value (E coli wild type; clinical isolate AG001, WT) was 1 µg/mL (≈ 1.63 µM). For the same compound, the “MIC E coli AG001” value (E coli wild type; clinical isolate AG001, Table 1 (Example 3)) was 4 µg/mL (≈ 6.51 µM), the “MIC E coli AG003” value (E coli wild type; clinical isolate AG003, Table 1 (Example 3)) was 1 µg/mL (≈ 1.63 µM) and the “MIC AG055 E. coli WT” value (E coli wild type; clinical isolate AG055, WT) was 1 µg/mL (≈ 1.63 µM). For the same compound, the “MIC E coli AG055” value (E coli wild type; clinical isolate AG055, Table 1 (Example 3)) was 1 µg/mL (≈ 1.63 µM), the “MIC AG160 E. coli WT” value (E coli wild type; clinical isolate AG160 WT, Table 2 (Example 4)) was 1 µg/mL (≈ 1.63 µM) and the “MIC pH430 E. coli WT” value (E coli wild type; engineered strain pH430 WT, Table 2 (Example 4)) was 1 μg/ml. For the same compound, the “MIC50 E coli pH430 WT” value (E coli wild type; pH430 WT, Table 2B (Example 2)) was 1 μg/ml, the “MIC50 E coli AG01” value (E coli wild type; strain AG01, Table 1 (Example 2)) was 2 µg/mL (≈ 3.25 µM) and the “MIC50 E coli AG03” value (E coli wild type; strain AG03, Table 1 (Example 2)) was 1 µg/mL (≈ 1.63 µM). For the same compound, the “MIC50 E coli AG55” value (E coli wild type; strain AG55, Table 1 (Example 2)) was 1 to 2 µg/mL, the “MIC AG212 E. coli” value (E coli wild type; strain AG212 E. coli (ATCC25922)) was 0.5 to 1 µg/mL and the pIC50 ([3]; cytosolic, Table 3 (Example 1), read-out: IC50 Cyt) was 4.46. It also gave a pIC50 ([3]; cytosolic, Table 3 (Example 2), read-out: IC50 Cyt) of 4.46, a pIC50 ([3]; cytosolic, Table 4 (Example 3), read-out: IC50 Cyt) of 4.46 and a pIC50 ([3]; ribosomes with a human cytosolic decoding site, read-out: IC50 Cytosolic) of 4.46. The pIC50 ([4]; mitochondrial, Table 3 (Example 1), read-out: IC50 Mit) was 5.37, the pIC50 ([4]; mitochondrial, Table 3 (Example 2), read-out: IC50 Mit) was 5.37 and the pIC50 ([4]; mitochondrial, Table 4 (Example 3), read-out: IC50 Mit) was 5.37. The “Target specificity bacterial vs. Mitochondrial” value ([4]; relative target specificity, bacterial vs. human mitochondrial) was “low”, the pIC50 ([4]; ribosomes with a human mitochondrial decoding site, read-out: IC50 Mitoch.) was 5.37 and the “MIC AG038 MRSA” value (MRSA; clinical isolate AG038) was 0.25 µg/mL (≈ 0.407 µM). The “MIC MRSA AG038” value (MRSA; clinical isolate AG038, Table 1 (Example 3)) was 0.25 µg/mL (≈ 0.407 µM), the “MIC AG039 MRSA AAC(6′)-I ANT(4′)-I” value (MRSA; clinical isolate AG039, AAC(6′)-I ANT(4′)-I) was 128 µg/mL (≈ 208 µM) and the “MIC MRSA AG039” value (MRSA; clinical isolate AG039, Table 1 (Example 3)) was 128 µg/mL (≈ 208 µM). For the same compound, the “MIC AG042 MRSA AAC(6′)-I ANT(4′)-I APH(2′)” value (MRSA; clinical isolate AG042, AAC(6′)-I ANT(4′)-I APH(2′)) was 128 µg/mL (≈ 208 µM), the “MIC MRSA AG042” value (MRSA; clinical isolate AG042, Table 1 (Example 3)) was 128 µg/mL (≈ 208 µM) and the “MIC MRSA AG044” value (MRSA; clinical isolate AG044, Table 1 (Example 3)) was 0.5 to 1 µg/mL. The “MIC50 MRSA AG38” value (MRSA; strain AG38, Table 1 (Example 2)) was 1 to 2 µg/mL, the “MIC50 MRSA AG39” value (MRSA; strain AG39, Table 1 (Example 2)) was 128 µg/mL (≈ 208 µM) and the “MIC50 MRSA AG42” value (MRSA; strain AG42, Table 1 (Example 2)) was 128 µg/mL (≈ 208 µM). For the same compound, the “MIC50 MRSA AG44” value (MRSA; strain AG44, Table 1 (Example 2)) was 0.5 to 1 µg/mL.
